The text below walks through data of patent US11077100B2, “Tetrahydroquinoline derivatives as P2X7 receptor antagonists” (RaQualia Pharma Inc., priority 2017, dated 2021).

For experiment [1], the target named is rat P2X7 (Rattus norvegicus (Rat), UniProt Q64663). The experiment is described as follows: Rat P2X7 functional assay (Ca2+ influx, Fluo-4, FDSS). The format is cell-based. Conditions: HEK293 cells stably expressing rat P2X7; BzATP final 10 microM; 7-point dose-response; read-out: Antagonistic activities with respect to the rat P2X7 receptor (IC50). In a few lines:
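HEK293 cells stably expressing rat P2X7 (5,000/well, plated 24 h before) loaded with Fluo-4; compounds preincubated 10 min at room temperature, then Ca2+ rise after 10 microM BzATP (final) read on FDSS (480/540 nm). IC50 from 7-point curves, duplicate wells.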

Experiment [2] deals with human P2X7 (Homo sapiens (Human), UniProt Q99572). In words: Human P2X7 functional assay (Ca2+ influx, Fluo-4, FDSS). The format is cell-based. Conditions: antagonistic activity with respect to the human P2X7 receptor; BzATP final concentration 80 microM. In a few lines: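 HEK293 cells stably expressing C-terminally FLAG-tagged human P2X7, loaded with Fluo-4. Compounds were preincubated for 10 min at room temperature, then 80 μM BzATP (final) was added and Ca2+ fluorescence read at 540 nm (480 nm excitation) by FDSS. IC50 values come from 7-point curves, duplicate wells.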
human P2X7, sequence (Q99572 whole entry): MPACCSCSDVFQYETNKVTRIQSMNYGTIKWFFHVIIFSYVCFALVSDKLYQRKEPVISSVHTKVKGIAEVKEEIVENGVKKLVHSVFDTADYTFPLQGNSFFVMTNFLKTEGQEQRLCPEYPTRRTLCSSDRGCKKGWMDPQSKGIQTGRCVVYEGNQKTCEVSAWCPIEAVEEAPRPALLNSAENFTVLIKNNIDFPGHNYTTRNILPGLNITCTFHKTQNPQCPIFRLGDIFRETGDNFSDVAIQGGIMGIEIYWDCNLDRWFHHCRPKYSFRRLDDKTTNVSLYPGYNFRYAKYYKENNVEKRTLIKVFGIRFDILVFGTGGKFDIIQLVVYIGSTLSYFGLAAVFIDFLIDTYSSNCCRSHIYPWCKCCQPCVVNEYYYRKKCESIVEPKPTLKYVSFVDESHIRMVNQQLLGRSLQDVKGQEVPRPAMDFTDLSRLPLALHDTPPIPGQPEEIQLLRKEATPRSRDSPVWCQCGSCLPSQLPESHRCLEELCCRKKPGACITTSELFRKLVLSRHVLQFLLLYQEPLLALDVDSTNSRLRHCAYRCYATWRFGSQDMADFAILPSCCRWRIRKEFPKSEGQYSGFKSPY

Structures are written as SMILES.

rat P2X7, sequence (Q64663 whole entry): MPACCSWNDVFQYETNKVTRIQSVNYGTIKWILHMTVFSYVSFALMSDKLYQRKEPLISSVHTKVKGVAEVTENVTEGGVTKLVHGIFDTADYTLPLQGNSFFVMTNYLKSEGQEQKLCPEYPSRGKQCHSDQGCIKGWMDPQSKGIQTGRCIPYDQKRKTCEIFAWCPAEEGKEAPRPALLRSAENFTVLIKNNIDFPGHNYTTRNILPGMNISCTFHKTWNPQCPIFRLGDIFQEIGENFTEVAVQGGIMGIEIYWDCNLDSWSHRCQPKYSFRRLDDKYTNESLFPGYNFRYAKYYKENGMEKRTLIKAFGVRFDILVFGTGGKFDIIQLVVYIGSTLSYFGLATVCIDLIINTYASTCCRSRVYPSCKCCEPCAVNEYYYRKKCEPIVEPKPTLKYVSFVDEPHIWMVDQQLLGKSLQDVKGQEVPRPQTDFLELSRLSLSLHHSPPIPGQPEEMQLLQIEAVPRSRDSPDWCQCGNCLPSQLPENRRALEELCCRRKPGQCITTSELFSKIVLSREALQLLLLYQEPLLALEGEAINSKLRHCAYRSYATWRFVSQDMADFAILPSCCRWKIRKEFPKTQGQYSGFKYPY

On to `CO[C@H]1CC[C@@](F)(C(=O)NCc2ccc(C(F)(F)F)cc2Cl)c2cccnc21` [Example 338, (5S,8S)-N-(2-chloro-4-(trifluoromethyl)benzyl)-5-fluoro-8-methoxy-5,6,7,8-tetrahydroquinoline-5-carboxamide], for which the IC50 in experiment [1] was < 1000 nM; in experiment [2] it was < 50 nM.

As to `O=C(N[C@@H]1CCc2ccccc21)[C@]1(F)CC[C@H](O)c2ncccc21` [Example 196, (5S,8S)-N-((R)-2,3-dihydro-1H-inden-1-yl)-5-fluoro-8-hydroxy-5,6,7,8-tetrahydroquinoline-5-carboxamide], the values for the IC50 in experiment [1] and in experiment [2] were < 1000 nM and < 50 nM, respectively.

As for `COc1ccc(CNC(=O)[C@]2(F)CC[C@H](O)c3ncccc32)c(Cl)c1` [Example 172, (5S,8S)-N-(2-chloro-4-methoxybenzyl)-5-fluoro-8-hydroxy-5,6,7,8-tetrahydroquinoline-5-carboxamide], the results for the IC50 in experiment [1] and in experiment [2] were < 1000 nM and 101 to 300 nM, respectively.

Regarding `C[C@]1(O)CC[C@@](F)(C(=O)NCc2ccc(Cl)cc2Cl)c2cccnc21` [Example 256, (5S,8S)-N-(2,4-dichlorobenzyl)-5-fluoro-8-hydroxy-8-methyl-5,6,7,8-tetrahydroquinoline-5-carboxamide], the IC50 is < 1000 nM in experiment [1] and < 50 nM in experiment [2].

As for `O=C(NCc1ccc(F)cc1F)[C@]1(F)CC[C@@](O)(CO)c2ncccc21` [Example 318, (5S,8S)-N-(2,4-difluorobenzyl)-5-fluoro-8-hydroxy-8-(hydroxymethyl)-5,6,7,8-tetrahydroquinoline-5-carboxamide], the IC50 in experiment [1] is < 1000 nM; in experiment [2], 301 to 1000 nM.

For the molecule `O=C(NCc1c(Cl)cc(Cl)cc1CO)[C@]1(F)CC[C@H](OCCO)c2ncccc21` [Example 343, (5S,8S)-N-(2,4-dichloro-6-(hydroxymethyl)benzyl)-5-fluoro-8-(2-hydroxyethoxy)-5,6,7,8-tetrahydroquinoline-5-carboxamide], the values for the IC50 in experiment [1] and in experiment [2] were < 1000 nM and < 50 nM, respectively.

Turning to `O=C(NCc1ccc(F)c(Cl)c1F)[C@]1(F)CC[C@H](O)c2ncccc21` [Example 185, (5S,8S)-N-(3-chloro-2,4-difluorobenzyl)-5-fluoro-8-hydroxy-5,6,7,8-tetrahydroquinoline-5-carboxamide], the IC50 in experiment [1] is < 1000 nM; in experiment [2] it was < 50 nM.

As for `O=C(NCC(c1ccc(Cl)cc1)N1CCC(F)(F)CC1)[C@]1(F)CC[C@H](O)c2ncccc21` (stereo partly drawn) [Example 232, (5S,8S)-N-(2-(4-chlorophenyl)-2-(4,4-difluoropiperidin-1-yl)ethyl)-5-fluoro-8-hydroxy-5,6,7,8-tetrahydroquinoline-5-carboxamide], the IC50 in experiment [1] is < 1000 nM; in experiment [2] it was < 50 nM.

Turning to `O=C(NCc1c(F)cc(F)cc1Cl)[C@]1(F)CC[C@@](O)(CO)c2ncccc21` [Example 321, (5S,8S)-N-(2-chloro-4,6-difluorobenzyl)-5-fluoro-8-hydroxy-8-(hydroxymethyl)-5,6,7,8-tetrahydroquinoline-5-carboxamide], the values for the IC50 in experiment [1] and in experiment [2] were < 1000 nM and < 50 nM, respectively.

In the case of `O=C(NCc1cccc(F)c1F)[C@]1(F)CC[C@H](O)c2ncccc21` [Example 208, (5S,8S)-N-(2,3-difluorobenzyl)-5-fluoro-8-hydroxy-5,6,7,8-tetrahydroquinoline-5-carboxamide], the IC50 in experiment [1] is < 1000 nM; in experiment [2], 101 to 300 nM.

On to `O=C(NCc1c(F)cc(F)cc1Cl)[C@]1(F)CC[C@H](O)c2ncccc21` [Example 176, (5S,8S)-N-(2-chloro-4,6-difluorobenzyl)-5-fluoro-8-hydroxy-5,6,7,8-tetrahydroquinoline-5-carboxamide], for which the IC50 was < 1000 nM in experiment [1] and < 50 nM in experiment [2].

`O=C(NCc1c(Cl)cccc1C(F)(F)F)[C@]1(F)CC[C@H](O)c2ncccc21` [Example 179, (5S,8S)-N-(2-chloro-6-(trifluoromethyl)benzyl)-5-fluoro-8-hydroxy-5,6,7,8-tetrahydroquinoline-5-carboxamide]: the IC50 is < 1000 nM in experiment [1] and < 50 nM in experiment [2].

As for `CS(=O)(=O)C[C@]1(O)CC[C@@](F)(C(=O)NCc2ccc(F)cc2Cl)c2cccnc21` [Example 299, (5S,8S)-N-(2-chloro-4-fluorobenzyl)-5-fluoro-8-hydroxy-8-((methylsulfonyl)methyl)-5,6,7,8-tetrahydroquinoline-5-carboxamide], the IC50 is < 1000 nM in experiment [1] and 101 to 300 nM in experiment [2].

`O=C(NCc1ncc(Cl)cc1Cl)[C@]1(F)CC[C@H](O)c2ncccc21` [Example 177, (5S,8S)-N-((3,5-dichloropyridin-2-yl)methyl)-5-fluoro-8-hydroxy-5,6,7,8-tetrahydroquinoline-5-carboxamide]: the IC50 is < 1000 nM in experiment [1] and < 50 nM in experiment [2].

Turning to `C=C1CC(C(=O)NCc2c(C)cc(Cl)cc2Cl)c2cccnc21` (centres unmarked) [Example 11, N-(2,4-dichloro-6-methyl-benzyl)-7-methylene-6,7-dihydro-5H-cyclopenta [b]pyridine-5-carboxamide], the values for the IC50 in experiment [1] and in experiment [2] were < 1000 nM and < 50 nM, respectively.

Take `O=C(NCc1ccc(Cl)cc1F)[C@]1(F)CC[C@H](O)c2ncccc21` [Example 146, (5S,8S)-N-(4-chloro-2-fluorobenzyl)-5-fluoro-8-hydroxy-5,6,7,8-tetrahydroquinoline-5-carboxamide]: the IC50 in experiment [1] was < 1000 nM; in experiment [2], < 50 nM.

As for `O=C(NCc1ccc(Br)cc1Cl)[C@]1(F)CC[C@H](O)c2ncccc21` [Example 154, (5S,8S)-N-(4-bromo-2-chlorobenzyl)-5-fluoro-8-hydroxy-5,6,7,8-tetrahydroquinoline-5-carboxamide], the IC50 in experiment [1] is < 1000 nM; in experiment [2], < 50 nM.

Consider `O=C(NCc1ccc(F)cc1F)[C@]1(F)CC[C@H](O)c2ncccc21` [Example 141, (5S,8S)-N-(2,4-difluorobenzyl)-5-fluoro-8-hydroxy-5,6,7,8-tetrahydroquinoline-5-carboxamide], for which the IC50 is < 1000 nM in experiment [1] and < 50 nM in experiment [2].

With `Cc1cc(Cl)cc(Cl)c1CNC(=O)[C@H]1C[C@H](O)c2ncccc21` [Example 83, (5S,7S)-N-(2,4-dichloro-6-methylbenzyl)-7-hy-droxy-5,7-dihydro-5H-cyclopenta[b]pyridin-5-carboxamide], the IC50 in experiment [1] was < 1000 nM; in experiment [2], 101 to 300 nM.

For the molecule `O=C(NCc1ccc(F)c(F)c1Cl)[C@H]1CC[C@H](O)c2ncccc21` [Example 81, (5S,8S)-N-(2-chloro-3,4-difluorobenzyl)-8-hy-droxy-5,6,7,8-tetrahydro-auinoline-5-carboxamide], the IC50 in experiment [1] was < 1000 nM; in experiment [2] it was < 50 nM.

For the molecule `O=C(NC1COc2ccccc2C1)[C@]1(F)CC[C@H](O)c2ncccc21` (stereo partly drawn) [Example 233, (5S,8S)-N-(chroman-3-yl)-5-fluoro-8-hydroxy-5,6,7,8-tetrahydroquinoline-5-carboxamide], the values for the IC50 in experiment [1] and in experiment [2] were < 1000 nM and 101 to 300 nM, respectively.

Take `O=C(NCc1ccc(F)cc1Cl)[C@]1(F)CC[C@H](O)c2ncccc21` [Example 135, (5S,8S)-N-(2-chloro-4-fluorobenzyl)-5-fluoro-8-hydroxy-5,6,7,8-tetrahydroquinoline-5-carboxamide]: the IC50 in experiment [1] is < 1000 nM; in experiment [2], < 50 nM.

In the case of `O=C(NCc1ccc(Cl)cc1Cl)[C@]1(F)CC[C@@](O)(CN2CC(O)C2)c2ncccc21` (relative stereo) [Example 51, (5S*,8R*)-N-(2,4-dichlorobenzyl)-5-fluoro-8-hydroxy-8-((3-hydroxyaze-tidin-1-yl)methyl)-5,6,7,8-tetrahydro-quinoline-5-carboxamide], the results for the IC50 in experiment [1] and in experiment [2] were < 1000 nM and < 50 nM, respectively.

For the molecule `O=C1CC[C@@](F)(C(=O)NCc2c(F)cc(Cl)cc2Cl)c2cccnc21` [Example 251, (S)-N-(2,4-dichloro-6-fluorobenzyl)-5-fluoro-8-oxo-5,6,7,8-tetrahydro-quinoline-5-carboxamide], the values for the IC50 in experiment [1] and in experiment [2] were < 1000 nM and < 50 nM, respectively.

As for `COC[C@]1(O)CC[C@@](F)(C(=O)NCc2ccc(Cl)cc2Cl)c2cccnc21` (relative stereo) [Example 41, (5S*,8S*)-N-(2,4-dichlorobenzyl)-5-fluoro-8-hydroxy-8-(methoxymethyl)-5,6,7,8-tetrahydro-quinoline-5-carboxamide], the IC50 in experiment [1] was < 1000 nM; in experiment [2] it was < 50 nM.

As for `CN(C)CC1(O)CCC(F)(C(=O)NCc2cccc(C(F)(F)F)c2Cl)c2cccnc21` (centres unmarked) [Example 50, N-(2-chloro-3-(trifluoro-methyl)benzyl)-8-((di-methylamino)methyl)-5-fluoro-8-hydroxy-5,6,7,8-tetrahydroquinoline-5-carboxamide], the IC50 in experiment [1] is < 1000 nM; in experiment [2], < 50 nM.

Take `N[C@]1(CO)CC[C@@](F)(C(=O)NCc2ccc(Cl)cc2Cl)c2cccnc21` (relative stereo) [Example 59, (5S*,8R*)-8-amino-N-(2,4-dichloro-benzyl)-5-fluoro-8-(hydroxymethyl)-5,6,7,8-tetrahydroquinoline-5-carboxamide]: the values for the IC50 in experiment [1] and in experiment [2] were < 1000 nM and < 50 nM, respectively.

As for `O=C(NCc1ccc(Cl)cc1Cl)C1(F)CCC(O)c2ncccc21` (centres unmarked) [Example 22, N-(2,4-dichlorobenzyl)-5-fluoro-8-hydroxy-5,6,7,8-tetrahydroquinoline-5-carboxamide], the IC50 in experiment [1] is < 1000 nM; in experiment [2], < 50 nM.
